Measurements: patent US5053418A, “Antiprotozoal agents” (Burroughs Wellcome Co., priority 1983, dated 1991)

Tested on: P.yoelii
Assay: In vivo effect on P.yoelii in mice (inhibition of parasitaemia)
Conditions: for inhibition in vivo at 0.5 mg/kg: 0.50 mg/Kg × 7; for inhibition in vivo at 1 mg/kg: 1.0 mg/Kg × 7; for inhibition in vivo at 2.5 mg/kg: 2.5 mg/Kg × 7; for inhibition in vivo at 5 mg/kg: 5.0 mg/Kg × 7
Protocol: The naphthoquinone and the pyridinol were each suspended in 0.25% (w/v) celacol in water by milling for 16-24 hours at 26° C. The suspensions were subsequently serially diluted with 0.25% (w/v) celacol in water. At time 0, 0.1 ml of a suspension of 10^7 P.yoelii-parasitised red blood cells/ml of phosphate buffered saline were injected intravenously into 15-20 g mice through a tail vein. Groups of 5 mice per treatment were dosed orally at times 6, 22, 30, 46, 54, 70 and 78 hours with 0.2 ml of the drug suspension. Tail-blood smears were taken at 96 hours, stained with Giemsa and the percentage of red blood cells infected determined and compared to untreated, infected controls. Percent inhibition was correlated with dose to provide ED50 values for each drug alone. In subsequent experiments dilutions of the two drugs, alone and in combination were used, and the percentage inhibition of parasitaemia and ED50 values (of each drug at fixed concentrations of the other) were determined. The results are shown respectively in Tables V and VI. A number of combinations of clopidol (4-pyridinol) and naphthoquinones were assayed and compared with each drug alone for their antimalarial effect against P.yoelii in vivo by the method of Example 4.

[1] = Plasmodium yoelii, po, 96 h, naphthoquinone alone
[2] = naphthoquinone 0.50 + clopidol 1.4 mg/Kg × 7
[3] = naphthoquinone 0.50 + clopidol 4.3 mg/Kg × 7
[4] = naphthoquinone 1.0 + clopidol 1.4 mg/Kg × 7
[5] = naphthoquinone 1.0 + clopidol 4.3 mg/Kg × 7
[6] = naphthoquinone 2.5 + clopidol 1.4 mg/Kg × 7
[7] = naphthoquinone 2.5 + clopidol 4.3 mg/Kg × 7
[8] = naphthoquinone 5.0 + clopidol 1.4 mg/Kg × 7
[9] = naphthoquinone 5.0 + clopidol 4.3 mg/Kg × 7

O=C1C(O)=C(CCCCCCCCC2CCCCC2)C(=O)c2ccccc21
inhibition in vivo at 0.5 mg/kg [1]: 7% | inhibition in vivo at 1 mg/kg [1]: 19% | % inhibition of parasitaemia (combination) (naphthoquinone 0.50 + clopidol 2.5 mg/Kg × 7): 10% | % inhibition of parasitaemia (combination) (naphthoquinone 0.50 + clopidol 5.0 mg/Kg × 7): 45% | % inhibition of parasitaemia (combination) (naphthoquinone 1.0 + clopidol 2.5 mg/Kg × 7): 31% | % inhibition of parasitaemia (combination) (naphthoquinone 1.0 + clopidol 5.0 mg/Kg × 7): 55%

O=C1C(O)=C(C2CCCCC2)C(=O)c2ccccc21
inhibition in vivo at 1.5 mg/kg (Plasmodium yoelii, po, 96 h, naphthoquinone alone, 1.5 mg/Kg × 7): 1% | inhibition in vivo at 3 mg/kg (Plasmodium yoelii, po, 96 h, naphthoquinone alone, 3.0 mg/Kg × 7): 15% | % inhibition of parasitaemia (combination) (naphthoquinone 1.5 + clopidol 1.9 mg/Kg × 7): 47% | % inhibition of parasitaemia (combination) (naphthoquinone 1.5 + clopidol 3.75 mg/Kg × 7): 76% | % inhibition of parasitaemia (combination) (naphthoquinone 3.0 + clopidol 1.9 mg/Kg × 7): 64% | % inhibition of parasitaemia (combination) (naphthoquinone 3.0 + clopidol 3.75 mg/Kg × 7): 97%

O=C1C(O)=C(C2CCC(c3ccccc3)CC2)C(=O)c2ccccc21 (stereo not drawn)
inhibition in vivo at 0.04 mg/kg (Plasmodium yoelii, po, 96 h, naphthoquinone alone, 0.040 mg/Kg × 7): 0% | inhibition in vivo at 0.05 mg/kg (Plasmodium yoelii, po, 96 h, naphthoquinone alone, 0.050 mg/Kg × 7): 0% | % inhibition of parasitaemia (combination) (naphthoquinone 0.040 + clopidol 1.9 mg/Kg × 7): 23% | % inhibition of parasitaemia (combination) (naphthoquinone 0.040 + clopidol 3.75 mg/Kg × 7): 39% | % inhibition of parasitaemia (combination) (naphthoquinone 0.050 + clopidol 1.9 mg/Kg × 7): 34% | % inhibition of parasitaemia (combination) (naphthoquinone 0.050 + clopidol 3.75 mg/Kg × 7): 73%

CC(C)(C)C1CCC(CC2=C(O)C(=O)c3ccccc3C2=O)CC1 (stereo not drawn)
inhibition in vivo at 0.5 mg/kg [1]: 10% | inhibition in vivo at 1 mg/kg [1]: 19% | % inhibition of parasitaemia (combination) [2]: 17% | % inhibition of parasitaemia (combination) [3]: 61% | % inhibition of parasitaemia (combination) [4]: 52% | % inhibition of parasitaemia (combination) [5]: 93%

CCC1(CC)CCC(C2=C(O)C(=O)c3ccccc3C2=O)CC1
inhibition in vivo at 0.5 mg/kg [1]: 5% | inhibition in vivo at 1 mg/kg [1]: 4% | % inhibition of parasitaemia (combination) [2]: 14% | % inhibition of parasitaemia (combination) [3]: 54% | % inhibition of parasitaemia (combination) [4]: 68% | % inhibition of parasitaemia (combination) [5]: 75%

O=C1C(O)=C(C2CCC(c3ccc(Cl)cc3)CC2)C(=O)c2ccccc21 (stereo not drawn)
inhibition in vivo at 0.01 mg/kg (Plasmodium yoelii, po, 96 h, naphthoquinone alone, 0.010 mg/Kg × 7): 5% | inhibition in vivo at 0.02 mg/kg (Plasmodium yoelii, po, 96 h, naphthoquinone alone, 0.020 mg/Kg × 7): 12% | % inhibition of parasitaemia (combination) (naphthoquinone 0.010 + clopidol 1.4 mg/Kg × 7): 29% | % inhibition of parasitaemia (combination) (naphthoquinone 0.010 + clopidol 4.3 mg/Kg × 7): 68% | % inhibition of parasitaemia (combination) (naphthoquinone 0.020 + clopidol 1.4 mg/Kg × 7): 55% | % inhibition of parasitaemia (combination) (naphthoquinone 0.020 + clopidol 4.3 mg/Kg × 7): 90%

CC(C)(C)OC1CCC(C2=C(O)C(=O)c3ccccc3C2=O)CC1 (stereo not drawn)
inhibition in vivo at 0.13 mg/kg (Plasmodium yoelii, po, 96 h, naphthoquinone alone, 0.13 mg/Kg × 7): 1% | inhibition in vivo at 0.25 mg/kg (Plasmodium yoelii, po, 96 h, naphthoquinone alone, 0.25 mg/Kg × 7): 5% | % inhibition of parasitaemia (combination) (naphthoquinone 0.13 + clopidol 4.3 mg/Kg × 7): 84% | % inhibition of parasitaemia (combination) (naphthoquinone 0.13 + clopidol 13 mg/Kg × 7): 31% | % inhibition of parasitaemia (combination) (naphthoquinone 0.25 + clopidol 4.3 mg/Kg × 7): 97% | % inhibition of parasitaemia (combination) (naphthoquinone 0.25 + clopidol 13 mg/Kg × 7): 80%

CC(=O)OC1=C(C2CCCCC2)C(=O)c2ccccc2C1=O
inhibition in vivo at 2.5 mg/kg [1]: 2% | inhibition in vivo at 5 mg/kg [1]: 3% | % inhibition of parasitaemia (combination) [6]: 3% | % inhibition of parasitaemia (combination) [7]: 50% | % inhibition of parasitaemia (combination) [8]: 22% | % inhibition of parasitaemia (combination) [9]: 86%

CC1(C)CCC(C2=C(O)C(=O)c3ccccc3C2=O)CC1
inhibition in vivo at 2.5 mg/kg [1]: 0% | inhibition in vivo at 5 mg/kg [1]: 0% | % inhibition of parasitaemia (combination) [6]: 22% | % inhibition of parasitaemia (combination) [7]: 45% | % inhibition of parasitaemia (combination) [8]: 46% | % inhibition of parasitaemia (combination) [9]: 73%
